# Results from ChEMBL document CHEMBL5331114, “Discovery of Pyxinol Amide Derivatives Bearing Amino Acid Residues as Nonsubstrate Allosteric Inhibitors of P-Glycoprotein-Mediated Multidrug Resistance” (J Med Chem, 2023).
# Key:
# [1] = Induction of Ptx-mediated cell cycle arrest in human KBV cells assessed as accumulation of cells at G2-M phase at 10 uM incubated for 24 hrs in presence of paclitaxel by flow cytometry analysis (Rvb =25.34 +/- 0.92%); type: functional
# [2] = biological target: T1, ATP-dependent translocase ABCB1 (Homo sapiens, UniProt P08183); assay: Negative allosteric modulator activity at human P-gp ATP synthase hydrolytic activity assessed as inhibition of basal Pgp-ATPase activity at 0.5 mM incubated for 60 mins in presence of ATP by Glo-luminescence based microplate reader assay; details: 1 h, 500 µM
# T1 sequence (P08183 whole entry): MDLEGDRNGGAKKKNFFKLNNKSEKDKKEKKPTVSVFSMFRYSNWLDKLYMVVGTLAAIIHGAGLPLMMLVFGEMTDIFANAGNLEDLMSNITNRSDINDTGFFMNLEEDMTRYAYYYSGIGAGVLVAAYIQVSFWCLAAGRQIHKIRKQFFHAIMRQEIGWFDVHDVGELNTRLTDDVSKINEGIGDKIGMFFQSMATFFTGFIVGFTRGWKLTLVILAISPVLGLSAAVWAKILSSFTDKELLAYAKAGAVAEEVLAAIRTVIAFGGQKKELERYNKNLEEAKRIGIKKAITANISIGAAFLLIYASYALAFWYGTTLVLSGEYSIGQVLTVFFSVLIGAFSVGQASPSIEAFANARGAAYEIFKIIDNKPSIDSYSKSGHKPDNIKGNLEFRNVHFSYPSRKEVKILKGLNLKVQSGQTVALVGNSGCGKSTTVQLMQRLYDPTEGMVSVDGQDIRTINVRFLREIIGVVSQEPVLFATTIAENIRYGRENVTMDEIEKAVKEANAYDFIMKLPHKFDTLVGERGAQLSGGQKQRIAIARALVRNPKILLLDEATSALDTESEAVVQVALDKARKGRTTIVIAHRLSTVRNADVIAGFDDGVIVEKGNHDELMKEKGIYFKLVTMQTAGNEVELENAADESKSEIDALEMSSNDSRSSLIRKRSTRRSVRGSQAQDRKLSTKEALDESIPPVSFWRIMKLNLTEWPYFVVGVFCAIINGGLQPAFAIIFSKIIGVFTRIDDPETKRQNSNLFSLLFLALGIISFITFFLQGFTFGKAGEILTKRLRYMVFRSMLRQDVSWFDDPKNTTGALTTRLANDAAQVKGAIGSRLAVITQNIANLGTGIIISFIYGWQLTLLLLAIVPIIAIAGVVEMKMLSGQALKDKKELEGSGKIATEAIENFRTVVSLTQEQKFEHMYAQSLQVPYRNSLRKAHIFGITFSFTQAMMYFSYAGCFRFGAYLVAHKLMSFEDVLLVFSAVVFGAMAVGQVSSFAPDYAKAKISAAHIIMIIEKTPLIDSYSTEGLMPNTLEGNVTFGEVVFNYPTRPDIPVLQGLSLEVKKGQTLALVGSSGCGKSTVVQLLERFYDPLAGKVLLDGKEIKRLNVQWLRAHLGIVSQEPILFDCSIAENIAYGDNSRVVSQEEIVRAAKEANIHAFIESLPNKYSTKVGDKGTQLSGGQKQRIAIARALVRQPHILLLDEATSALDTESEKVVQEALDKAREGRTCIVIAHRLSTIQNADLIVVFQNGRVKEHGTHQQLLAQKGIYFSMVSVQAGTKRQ
# [3] = Chemo-sensitizing activity against Ptx-resistance human KBV cells xenografted in BALB/c mouse assessed as inhibition of tumor growth at 20 mg/kg,ip pre-treated with paclitaxel measured after 23 days; type: functional; details: 552 h, time 23 day
# P-gp (ABCB1) ATPase [4] = biological target: T2, P-gp (ABCB1) ATPase (Homo sapiens, UniProt P08183); assay: Negative allosteric modulator activity at human P-gp ATP synthase hydrolytic activity assessed as inhibition of basal Pgp-ATPase activity incubated for 60 mins in presence of ATP by Glo-luminescence based microplate reader assay relative to DMSO
# T2 sequence (P08183 whole entry): as above
# [5] = biological target: T1, ATP-dependent translocase ABCB1; assay: Negative allosteric modulator activity at P-glycoprotein in human KBV cells assessed as effect on P-gp protein localization at 10 uM incubated for 48 hrs by immunofluorescence analysis; type: cell-based
# [6] = Induction of Ptx-mediated cell cycle arrest in human KBV cells assessed as accumulation of cells at G2-M phase at 5 uM incubated for 24 hrs in presence of paclitaxel by flow cytometry analysis (Rvb =25.34 +/- 0.92%); type: functional
# P-gp (ABCB1) ATPase [7] = biological target: T2, P-gp (ABCB1) ATPase; assay: Negative allosteric modulator activity at human P-gp ATP synthase hydrolytic activity assessed as inhibition of basal Pgp-ATPase activity at 25 uM incubated for 60 mins in presence of ATP by Glo-luminescence based microplate reader assay relative to DMSO
# [8] = Induction of Ptx-mediated cell cycle arrest in human KBV cells assessed as accumulation of cells at G1-G0 phase at 10 uM incubated for 24 hrs in presence of paclitaxel by flow cytometry analysis (Rvb =57.76 +/- 0.78%); type: functional
structure (smiles),measurement,setting,value
CC(C)(O)[C@H]1CC[C@@](C)([C@H]2CC[C@]3(C)[C@@H]2[C@H](O)C[C@@H]2[C@@]4(C)CC[C@H](NC(=O)[C@@H]5CCCN5)C(C)(C)[C@@H]4CC[C@]23C)O1,Activity,[1],42.21%
same,inhibition (INH),[2],Not Active
same,inhibition in vivo at 20 mg/kg,[3],58.1%
same,inhibition at 1 h,P-gp (ABCB1) ATPase [4],13%
same,Activity,[5],Not Active
same,Activity,[6],31.28%
same,"inhibition at 1 h, 25 µM",P-gp (ABCB1) ATPase [7],87%
same,Activity,[8],36.65%
